US5817756A, “Pseudo- and non-peptide bradykinin receptor antagonists” (Scios Inc., priority 1995, dated 1998)

Legend:
[1] = target: T1, human bradykinin B2 receptor (Homo sapiens, UniProt P30411); experiment: Radioligand binding, H2O.2 cell membranes, 3H-NPC17731; details: Table 2; 3H-NPC17731; read-out: Radioligand Binding, Ki Human 3H17731
T1 construct: The HindIII/XbaI fragment of one full-length clone, 126A, was inserted into pcDNAI neo vector; expressed in transfected cells
T1 sequence (P30411 1-391): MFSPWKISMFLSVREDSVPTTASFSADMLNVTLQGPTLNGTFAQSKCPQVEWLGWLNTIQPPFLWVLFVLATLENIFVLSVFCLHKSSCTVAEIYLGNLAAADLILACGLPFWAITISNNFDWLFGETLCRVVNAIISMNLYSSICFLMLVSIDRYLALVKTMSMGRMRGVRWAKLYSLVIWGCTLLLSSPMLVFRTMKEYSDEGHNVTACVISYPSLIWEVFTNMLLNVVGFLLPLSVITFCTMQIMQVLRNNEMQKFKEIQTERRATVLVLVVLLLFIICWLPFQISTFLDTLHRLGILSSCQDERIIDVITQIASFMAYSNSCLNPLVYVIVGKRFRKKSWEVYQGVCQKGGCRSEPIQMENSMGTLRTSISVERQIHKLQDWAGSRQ
Method: (§1) A human bradykinin B2 receptor was expressed in CHO/K cells. Briefly, approximately 2×10^6 plaques from a human uterus λgt10 cDNA library (Clontech Laboratories; Palo Alto, Calif.) were screened using a PCR fragment containing the coding region of the rat B2 receptor. This probe was generated by random-primed synthesis in the presence of α[^32 P]dATP. Duplicate filters were hybridized overnight at 42° C. in 1M NaCl, 50 mM Tris pH 7.5, 5× Denhardt's, 200 μg/ml salmon sperm DNA, 1% SDS, and 20% formamide. The filters were washed at 65° C. in 1× SSC and 1% SDS. Coincident positively hybridizing plaques were purified and rescreened with the same probe and stringency conditions. EcoRI fragments of positive clones were inserted into Bluescript/KS II+vector (Stratagene; La Jolla, Calif.) for sequence determination.
(§2) The nucleotide sequence of the cloned human B2 receptors was determined using double-stranded DNA and the dideoxy chain termination method. Commercially available T3 and T7 oligonucleotides (USB; Cleveland, Ohio) and synthetic 21-mer oligonucleotides (DNA/RNA Synthesizer; applied Biosystems Inc.; Palo Alto, Calif.) from both the known rat sequence and the determined human sequence were used to identify the nucleotide sequence from the 5' untranslated end to the BglII site in the 3' untranslated end of the clone.
(§3) CHO/K cells were plated in 2 ml of growth medium (Ham's F12 with 10% FBS) per 6 well plate and incubated at 37° C., 5% CO2 until they were 60% confluent. For each well, 4, 12, and 16 μg of DNA was diluted in 100 μl Opti-MEM I reduced serum medium (Gibco/BRL; Gaithersburg, Md.). 12 μl of TransfectASE reagent (Gibco/BRL) was diluted in a separate aliquot of 100 μl Opti-MEM I. The DNA and TransfecASE solutions were combined, mixed gently, and incubated at 25° C. for 15 minutes. This solution was then diluted to 1 ml with Opti-MEM I. Each well was washed twice with Opti-MEM I and 1 ml of the DNA/TransfectAse complex was added to each well. After a 5 hour incubation at 37° C. and 5% CO2, 1 ml of Ham's F12 with 20% FBS was added to each well and cells were incubated overnight. Media was replaced with growth medium and incubated for additional 24 hours.
(§4) This assay measures the ability of a bradykinin antagonist compound to compete for binding to the human B2 receptor with tritiated bradykinin or tritiated NPC17731, a bradykinin analog which is known to bind the B2 receptor and act as a bradykinin antagonist.
(§5) H2O.2 cells were grown to confluency in Ham's F12 media containing 10% FBS and 500 μg/ml Geneticin. Growth media was aspirated and the monolayer washed once with Dulbecco's PBS without Ca^++ and Mg^++. Cells were scraped in Dulbecco's PBS and centrifuged at 2,000×g for 10 minutes. Pellets were resuspended in 25 mM TES, 1 mM 1,10-phenanthroline pH 6.8 buffer and homogenized using a Ploytron at setting 5 for 10 seconds. An aliquot was taken for a protein determination using a BioRad protein assay kit. Membranes were centrifuged at 48,000×g for 10 minutes at 4° C. Pellets were resuspended in the TES buffer with 0.1% BSA and 0.014% bacitracin. 0.5 ml aliquots were frozen in liquid N2 and stored at -80° C. for up to 2 weeks.
(§6) Membranes from H2O.2 cells previously prepared were thawed at 37° C. and diluted in 25 mM TES, […] 1,10-phenanthroline pH 6.8 containing BSA and bactiracin. […] Non-specific binding was determined with 1 μM bradykinin. The tubes were incubated 90 minutes at 25° C. and the assay was terminated by rapid vacuum filtration onto Whatman GF/B filters presoaked with 0.2% PEI for 3 hours followed by 2×3 ml aliquots of ice-cold 50 mM Tris, pH 7.4. Radioactivity was counted with a Beckman scintillation counter.

[2] = target: T1, human bradykinin B2 receptor; experiment: Radioligand binding, H2O.2 cell membranes, 3H-bradykinin; details: Table 2, read-out: Radioligand Binding, Ki Human 3HBK
Method: as §1, §2, §3, §4, §5, §6

human B2 receptor = target: T2, human B2 receptor (Homo sapiens, UniProt P30411); experiment: Whole cell binding assay, 3H-bradykinin; details: Table 2, whole cells, read-out: Radioligand Binding, Ki Whole Cell 3HBK
T2 construct: The HindIII/XbaI fragment of one full-length clone, 126A, was inserted into pcDNAI neo vector; expressed in transfected cells
T2 sequence (P30411 1-391): T1 sequence (P30411 1-391)
Method: Binding to confluent monolayers of transfected cells expressing the human B2 receptor (7,000 fmol/receptor/mg) grown in 24-well plates was measured by incubating cells in 1 ml cell binding buffer (PBS/Ca/Mg, 1% BSA, 0.14 mg/ml bacitracin) containing 10^-10 M ^3 H-bradykinin and various concentrations of unlabeled analogs for 4 to 10 hours at 4° C. Cells were washed three times with cell binding buffer and lysed in 0.1N NaOH. An aliquot of the lysate was counted to measure radioactivity bound.

Ki [1]: 94 nM
Ki [2]: 1800 nM
Ki (human B2 receptor): 10400 nM
SMILES: N=C(N)NCCC[C@@H](N)C(=O)N[C@@H](CCCNC(=N)N)C(=O)N1CCC2(CC1)C(=O)N(CC(=O)N1CCc3c(n(CC(=O)N[C@@H](CCCNC(=N)N)C(=O)O)c4ccccc34)C1)CN2c1ccccc1 [Compound 2]
